Entries after “also recorded” stand apart in the source; their conditions may differ. Where two headings read alike, the source gives them in different places. One block for each molecule: values may come before it.
Key:
SARM1 SAM^1–2TIR domains = target: T1, SARM1 SAM^1–2TIR domains (Homo sapiens, UniProt Q6SZW1); conditions: SAM TIR construct, substrate ENAD
T1 sequence (Q6SZW1 412-724): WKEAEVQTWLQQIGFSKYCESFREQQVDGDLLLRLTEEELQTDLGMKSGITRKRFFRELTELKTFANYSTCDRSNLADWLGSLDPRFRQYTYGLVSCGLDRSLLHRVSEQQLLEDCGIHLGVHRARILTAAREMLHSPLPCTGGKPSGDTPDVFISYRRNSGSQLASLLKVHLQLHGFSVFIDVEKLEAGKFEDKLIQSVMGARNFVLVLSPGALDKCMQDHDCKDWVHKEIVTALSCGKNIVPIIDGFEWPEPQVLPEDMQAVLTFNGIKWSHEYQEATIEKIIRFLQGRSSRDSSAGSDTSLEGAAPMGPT

SARM1 TIR domain [1] = target: T2, SARM1 TIR domain (Homo sapiens, UniProt Q6SZW1); test: Continuous fluorescent ENAD hydrolysis assay, SARM1 TIR domain in lysate; type: biochemical; conditions: for Inhibition of SARM1 (in words): 0 – 1 mM analog, ENAD 50 μM
T2 sequence (Q6SZW1 561-724): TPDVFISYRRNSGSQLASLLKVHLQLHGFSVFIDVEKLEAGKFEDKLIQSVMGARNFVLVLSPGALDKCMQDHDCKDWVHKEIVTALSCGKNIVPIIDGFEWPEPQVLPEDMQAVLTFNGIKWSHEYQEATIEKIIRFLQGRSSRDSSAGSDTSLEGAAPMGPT

full length SARM1 = target: T3, full length SARM1 (Homo sapiens, UniProt Q6SZW1); conditions: Full length SARM1, substrate ENAD
T3 sequence (Q6SZW1 28-724): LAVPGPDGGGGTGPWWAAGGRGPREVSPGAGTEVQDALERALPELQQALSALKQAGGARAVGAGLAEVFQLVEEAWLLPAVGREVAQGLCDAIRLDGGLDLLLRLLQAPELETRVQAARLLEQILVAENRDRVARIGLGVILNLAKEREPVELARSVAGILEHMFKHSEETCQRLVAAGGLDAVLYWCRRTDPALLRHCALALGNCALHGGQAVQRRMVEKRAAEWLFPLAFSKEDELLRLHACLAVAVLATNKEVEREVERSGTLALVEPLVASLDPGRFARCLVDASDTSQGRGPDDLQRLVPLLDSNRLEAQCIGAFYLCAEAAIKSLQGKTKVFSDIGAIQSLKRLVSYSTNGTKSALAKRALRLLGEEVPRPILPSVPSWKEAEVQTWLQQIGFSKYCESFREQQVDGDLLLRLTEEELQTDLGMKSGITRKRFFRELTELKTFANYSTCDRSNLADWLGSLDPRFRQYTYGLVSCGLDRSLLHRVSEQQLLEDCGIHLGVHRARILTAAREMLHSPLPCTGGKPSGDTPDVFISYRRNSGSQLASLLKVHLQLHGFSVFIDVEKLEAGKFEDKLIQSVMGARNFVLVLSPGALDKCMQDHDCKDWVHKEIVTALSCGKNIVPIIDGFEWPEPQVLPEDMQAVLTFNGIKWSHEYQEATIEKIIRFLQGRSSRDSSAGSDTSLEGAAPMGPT

SARM1 TIR domain [2] = target: T2, SARM1 TIR domain; test: Luminescent NNMT-coupled NAD+ hydrolysis assay; type: biochemical; conditions: TIR domain on affinity beads, substrate NAD^+
CD38 = conditions: cited from earlier work
Sir2 = conditions: ref [24]–[27]; cited from earlier work
[3] = 2 mM metal or EDTA, 300 nM SARM1, 200 μM ENAD
[4] = 300 nM SARM1, ENAD 0 – 400 μM varied

SMILES: NC(=O)c1ccc[n+]([C@@H]2O[C@H](COP(=O)([O-])OP(=O)(O)OC[C@H]3O[C@@H](n4cnc5c4ncn4ccnc54)[C@H](O)[C@@H]3O)[C@@H](O)[C@H]2O)c1 [ENAD, Nicotinamide 1, N^6–ethenoadenine dinucleotide]
- Km (SARM1 SAM^1–2TIR domains): 130 ± 20 µM
- kcat (SARM1 SAM^1–2TIR domains): 0.12 ± 0.02 s⁻¹
- Km (SARM1 TIR domain [1]): 35 ± 10 µM
- kcat (SARM1 TIR domain [1]; TIR domain, substrate ENAD, fluorescent assay): 0.06 ± 0.03 s⁻¹
- Km (full length SARM1): 70 ± 20 µM
- kcat (full length SARM1): 0.40 ± 0.04 s⁻¹

- Effect of divalent metal ions and EDTA on SARM1 catalysis (SARM1 TIR domain [1]; [3]): only Ni^2+ and Zn^2+ inhibit SARM1
SMILES: [Cl-].[Cl-].[Mg+2] [MgCl2]

SMILES: O=C(O)CCP(CCC(=O)O)CCC(=O)O [TCEP, tris(2–carboxyethyl)phosphine]
- Effect of reducing agents on SARM1 activity (SARM1 TIR domain [1]): Neither DTT nor TCEP altered SARM1 activity

- Effect of divalent metal ions and EDTA on SARM1 catalysis (SARM1 TIR domain [1]; [3]): only Ni^2+ and Zn^2+ inhibit SARM1
SMILES: [Cl][Mn][Cl] [MnCl2]

- Effect of divalent metal ions and EDTA on SARM1 catalysis (SARM1 TIR domain [1]; [3]): only Ni^2+ and Zn^2+ inhibit SARM1
SMILES: [Cl][Cu][Cl] [CuCl2]

- Km (SARM1 TIR domain [2]): 28 ± 6 µM
- kcat (SARM1 TIR domain [2]): 0.21 ± 0.03 s⁻¹
SMILES: NC(=O)c1ccc[n+]([C@@H]2O[C@H](COP(=O)([O-])OP(=O)(O)OC[C@H]3O[C@@H](n4cnc5c(N)ncnc54)[C@H](O)[C@@H]3O)[C@@H](O)[C@H]2O)c1 [NAD^+]

- Ki (SARM1 TIR domain [1]; [4]): 90 ± 10 µM
SMILES: Nc1ncnc2c1ncn2[C@@H]1O[C@H](COP(=O)(O)OP(=O)(O)OC[C@H]2OC(O)[C@H](O)[C@@H]2O)[C@@H](O)[C@H]1O (stereo partly shown) [ADPR, ADP Ribose]
- Pattern (mechanism) of inhibition (SARM1 TIR domain [1]; [4]): competitive; also recorded: competitively

- Effect of divalent metal ions and EDTA on SARM1 catalysis (SARM1 TIR domain [1]; [3]): inhibit SARM1
SMILES: [Cl-].[Cl-].[Zn+2] [Zn^2+, ZnCl2]

- Effect of divalent metal ions and EDTA on SARM1 catalysis (SARM1 TIR domain [1]; [3]): only Ni^2+ and Zn^2+ inhibit SARM1
SMILES: [Ca+2].[Cl-].[Cl-] [CaCl2]

- Inhibition of SARM1 (in words) (SARM1 TIR domain [1]): inhibit SARM1
SMILES: NC(=O)c1ccc(Cl)nc1 [6-CN, 6–chloronicotinamide]

SMILES: O[C@@H](CS)[C@@H](O)CS (racemic) [DTT, dithiothreitrol]
- Effect of reducing agents on SARM1 activity (SARM1 TIR domain [1]; 0 – 2 mM reducing agent, 100 μM ENAD): Neither DTT nor TCEP altered SARM1 activity

SMILES: [Cl][Cd][Cl] [CdCl2]
- Effect of divalent metal ions and EDTA on SARM1 catalysis (SARM1 TIR domain [1]): only Ni^2+ and Zn^2+ inhibit SARM1

- IC50 (SARM1 TIR domain [1]): 640 ± 40 µM
- Ki (SARM1 TIR domain [1]): 700 ± 30 µM
- Inhibition of SARM1 (in words) (SARM1 TIR domain [1]): inhibit SARM1
- Pattern (mechanism) of inhibition (SARM1 TIR domain [1]; [4]): noncompetitive
- Pattern (mechanism) of inhibition (SARM1 TIR domain [1]; 300 nM SARM1, ENAD 0 – 400 μM varied, listed as 4-Chloronicotinamide): noncompetitively
SMILES: NC(=O)c1cnccc1Cl [4–CN, 4–chloronicotinamide]

- Effect of divalent metal ions and EDTA on SARM1 catalysis (SARM1 TIR domain [1]; [3]): lack of an effect
SMILES: O=C(O)CN(CCN(CC(=O)O)CC(=O)O)CC(=O)O [EDTA, ethylenediaminetetraacetic acid]

SMILES: [Cl][Ni][Cl] [Ni^2+, NiCl2]
- Effect of divalent metal ions and EDTA on SARM1 catalysis (SARM1 TIR domain [1]): inhibit SARM1
- IC50 (SARM1 TIR domain [1]; read-out: IC50 of metal ion inhibition of SARM1): 600 ± 100 µM

SMILES: [Cl-].[Cl-].[Co+2] [CoCl2]
- Effect of divalent metal ions and EDTA on SARM1 catalysis (SARM1 TIR domain [1]): only Ni^2+ and Zn^2+ inhibit SARM1

SMILES: NC(=O)c1cccnc1 [nicotinamide]
- Ki (CD38; ref [23]): 7100 µM
- Pattern of inhibition (CD38; ref [24]–[27]): mixed inhibition
- Pattern of inhibition (Sir2): noncompetitive

From PMC7085114 (Biochemistry, 2020)
